From US9624491B2, “Methods and compositions for the detection and treatment of cancer involving miRNAs and miRNA inhibitors and targets” (Memorial Sloan Kettering Cancer Center, priority 2010, dated 2017) come the findings set out here.

One data set concerns FL5-12 cells. Put plainly: Cell cycle and cell death (viability) assays in FL5-12 cells. In kind it is cell-based, murine. As to the method: FL5-12 murine lymphocytes, IL3 depletion studies and viral transductions were as described (Mavrakis, et al., 2008) (Plas, Talapatra, Edinger, Rathmell, & Thompson, 2001). Cell cycle and cell death assays based on uptake of DNA staining dye (LDS751) using Cell cycle and Viacount assays from Guava Technologies were performed as reported (Mavrakis, et al., 2008). The retroviral vectors are based on murine stem cell virus (MSCV) and include the miRNA expression vectors encoding miRs 17, 18a, 19b-1 (miR-19), 106a, 106b, 25 (He, et al., 2005), the vectors encoding Notch-ICN (a gift from W. Pear) (Pear, et al., 1996) and Bcl2 (Wendel, et al., 2004), the individual shRNA vectors (FIG. 17) and the library vector (MRP) (FIGS. 18a and b). miRNA inhibitor oligonucleotides (antagomirs) MZIP19a-PA-1, MZIP19b-PA-1, and scrambled control (MZIP000-PA-1) were from System Biosciences.

Data set [1] deals with Pten, Ppp2r5e, Prkaa1 and Bim mRNA. Put plainly: qRT-PCR of miR-19 target genes in FL5-12 cells. In kind it is cell-based. To be noted: FL5-12 cells and murine T-ALL samples. The source says:
Total RNA and miRNA-enriched RNA were extracted from cells and tumor samples using Allprep DNA/RNA/Protein Kits (Qiagen) and miRNeasy Mini Kits (Qiagen), respectively. Pathological diagnosis was by expert hematopathologists at Weill Cornell Medical College. cDNA synthesis and qRT-PCR and analysis by the ΔΔ Ct method were as described (Mavrakis, et al., 2008). TaqMan Gene Expression Assays were used for Bcl2L11 (Mm00437796_m1), Dock5 (Mm00555757_m1), FoxO1 (Mm00490672_m1), FoxO3 (Mm01185722_m1), Ppp2r5e (Mm00803759_m1), Prkaa1 (Mm01296695_m1) and Pten (Mm01212532_m1). Mouse GAPD (GAPDH) (4352932) and miR-19b (000396) were from Applied Biosystems. Expression was normalized to RNU6B (001093, Applied Biosystems).
(Quantitative PCR measures a nucleic acid by following its amplification.)

Data set [2] relates to PPP2R5E, PRKAA1, BIM, PTEN, Bnip3, phosphorylated S6. Put plainly: Immunoblot on lysates of transduced FL5-12 cells. It counts as cell-based, murine. Here is the method: Immunoblots were performed from whole cell lysates as described (Wendel, et al., 2004). Briefly, 50 μg of protein/sample were resolved on SDS-PAGE gels and transferred to Immobilon-P-membranes (Millipore). Antibodies were against Prkaa1 (2532, 1:1000, Cell Signaling), Bim/Bcl2L11 (AAP-330, 1:1000, Assay Designs), FoxO1 (94545, 1:1000, Cell Signaling), FoxO3a (9467, 1:1000, Cell Signaling) Phospho-FoxO3a (94665, 1:1000, Cell Signaling), Ppp2r5e (NB 100-845, NOVUS), Pten (9559, 1:1000, Cell Signaling), tubulin (1:5000; Sigma, B-5-1-2), actin (1:5000; Sigma, AC-15), Bnip3 (3769, 1:1000, Cell Signaling), phosphorylated S6 (2215, 1:1000, Cell Signaling), phosphorylated Akt (4058, 1:1000, Cell Signaling) and Dock5 [a generous gift from Alan Hall (MSKCC)]. Enhanced chemiluminescence was used for detection (ECL, Amersham).

Another data set concerns FL5-12/Bcl2 cells. Put plainly: Complementation studies in FL5-12 cells stably expressing Bcl2. It counts as cell-based, murine. Particulars: shifted from complete to IL3 deficient media. As to the method: The relative contribution of the novel miR-19 targets was assessed. The pro-apoptotic BIM protein opposes BCL2 and is an important regulator of lymphocyte survival (Bouillet, et al., 1999). To assess whether miR-19 has Bim-independent effects, complementation studies were conducted with FL5-12 cells engineered to stably express Bcl2 (FL5-12/Bcl2 cells). […] Similarly, expression of miR-19 was associated with continued proliferation in the presence of metformin-activated AMP kinase or expression of Pten or Pp2r5e (FIG. 16).

Data set [3] has as its system PTEN, BCL2L11, PHF6, IKZF1, NF1, FBXW7. The experiment in a line: 3′UTR reporter, quantitative PCR and immunoblot assays of tumor suppressor genes in murine leukemias. It counts as cell-based. To be noted: murine T-ALLs expressing NOTCH1 and miRNA, mRNA, protein. Here is the method: Immunoblots of whole cell lysates were performed as described (Wendel, et al., 2004). Antibodies were against Bim/Bcl2l11 (AAP-330, 1:1000, Assay Designs), Nf1 (sc67, 1:100, Santa Cruz), Cdc4/Fbxw7 (ab7405, 1:500, Abeam), Ikzf1 (sc-13039, 1:500, Santa Cruz), Phf6 (NB100-79861, 1:1000, Novus Biologicals), Pten (9559, 1:1000, Cell Signaling), tubulin (1:5000; Sigma, B-5-1-2) and actin (1:5000; Sigma, AC-15).
Total RNA and miRNA-enriched RNA was extracted using the Allprep DNA/RNA/Protein and miRNeasy Mini kits. Pathological diagnosis was by expert hematopathologists at Weill Cornell Medical Center. cDNA synthesis, PCR and analysis by the ΔΔ Ct method were as described (Mavrakis, et al., 2008) and utilized Taqman Gene Expression Assays: Bcl2l11 (Mm00437796_m1), BCL2L11 (Hs00197982_m1), Pten (Mm01212532_m1), PTEN (Hs02621230_s1), Nf1 (Mm00812430_m1), NF1 (Hs01035104_m1), Ikzf1 (Mm01187878_m1), IKZF1 (Hs00172991_m1), Fbxw7 (Mm00504452_m1), FBXW7 (Hs00217794_m1), Phf6 (Mm00804415_m1), and Mouse GAPD (GAPDH) (4352932, Applied Biosystems). Expression was normalized to RNU6B (001093, Applied Biosystems).
The mouse FBXW7 (bp 2793-4139; acc. no. NM_001177773), human NF1 (bp 10033-10666; acc. no NM_000267), human PHF6 (bp position 3271-4299; acc. no. NM_001015877) and Bim (bp. 3155-4773; acc. no. NM_009754) 3′UTR fragments were generated by PCR and cloned into the psi-CHECK-2 vector (Promega) with the exception of the IKZF1 3′UTR, which was purchased from Genecopoeia (cat no. HmiT000397b, by 2343-4471 of UTR). The assays were performed as described (Xiao, et al., 2008).
(In general: A western blot detects proteins with antibodies after separation by electrophoresis.)

“miR-19: miRNA of the 17˜92 cluster, UGUGCAAAUCCAUGCAAAACUGA (SEQ ID NO: 2); seed family in Table 3 (expressed or natural sequence; listed as Homo sapiens)”: the Viability with FL5-12 cells (FL5-12 cells withdrawn from IL3 for 48 h) is reported as 82%±1.5%. Besides, in the data set on FL5-12 cells (synchronized FL5-12 cells 24 h after release), the S-phase fraction was 24.5%±0.5. The “reductions in the mRNA levels of Pten, Ppp2r5r, Prkaa1 and Bim” value in data set [1] was “up to 2 ×”. Further, in data set [2] (FL5-12 cells), the Bnip3 protein result is reported as “neither miR-19 nor the antagomir had an effect on Bnip3”; the PTEN protein result was “no detectable effect on PTEN protein”; the “miR-19 target protein levels” value was “clear reduction in PPP2R5E, PRKAA1, and BIM”. Besides, the “ribosomal S6 phosphorylation” value in data set [2] (FL5-12 cells withdrawn from IL3 for 12 hours) is reported as “directly activated ribosomal S6 phosphorylation”. In addition, the “enrichment of GFP-expressing FL5-12/Bcl2 cells” value in the data set on FL5-12/Bcl2 cells was “continued enrichment in the presence of Bcl2”. Further, in data set [3], the “regulation of tumor suppressor genes” value is “regulates PTEN and BCL2L11 expression”.
